Marks after values point to notes of the source that are not given here.
How the values were obtained:
[1] = 3-month treatment of ovariectomized rats: lumbar spine BMD, total body fat, serum cholesterol, ALP (Example 4, experiment 1); format: in vivo, rat; settings: OVX rats, 3 months
Protocol: Ten to twelve week-old female Sprague-Dawley rats (Crl:CD(SD)Br) (Charles River Laboratory, St-Constant, Canada) weighing approximately 220-270 g at start of treatment were used. The animals were acclimatized to the environmental conditions (temperature: 22±3° C.; humidity: 50±20%; 12-h light-12-h dark cycles, lights on at 07:15 h) for at least 1 week before starting the experiments. The animals were housed individually and were allowed free access to tap water and a pelleted certified rodent feed (Lab Diet 5002, Ralston Purina, St-Louis, Mo.). Experiments were conducted in an animal facility approved by the Canadian Council on Animal Care (CCAC) and the Association for Assessment and Accreditation of Laboratory Animal Care (AAALAC) in accordance with the CCAC Guide for Care and Use of Experimental Animals.
On day 1 of the study, the animals of the appropriate groups were bilaterally ovariectomized (OVX) under isoflurane anesthesia. The DHEA was applied topically on the dorsal skin as a solution in 50% ethanol-50% propylene glycol while the other tested compounds were administered as suspension in 0.4% methylcellulose by oral gavage. Treatments were initiated on day 2 of the study and were performed once daily during 3 months.
After 3 months (experiment 1) or 26 weeks (experiment 2) of treatment, individual rats under Isoflurane anesthesia had their whole body skeleton and lumbar spine scanned using dual energy x-ray absorptiometry (DEXA; QDR 4500A, Hologic, Waltham, Mass.) and a Regional High Resolution Scan software. The bone mineral density (BMD) of the lumbar spine (vertebrae L2 to L4) and the total body composition (fat percentage) were determined.
After 3 months (experiment 1) or 26 weeks (experiment 2) of treatment, blood samples were collected at the jugular vein from overnight fasted animals (under Isoflurane anesthesia). Samples were processed for serum preparation and frozen at −80° C. until assay. Serum cholesterol levels and alkaline phospatase activity (ALP) were determined using the Boehringer Mannheim Diagnostic Hitachi 911 Analyzer (Boehringer Mannheim Diagnostic Laboratory Systems).

[2] = Uterine and vaginal weight in ovariectomized BALB/c mice treated orally for 9 days with or without estrone (Example 3); format: in vivo; settings: for inhibition of estrone-stimulated uterine weight / inhibition of vaginal weight (estrone-stimulated): OVX mice + estrone; for stimulation of uterine weight (estrogenic effect) / stimulation of vaginal weight (estrogenic effect): OVX mice, absence of estrone, 10 μg daily (no-effect statements: 1 μg and 10 μg)
Protocol: Female BALB/c mice (BALB/cAnNCrlBR) weighing 18-20 g were obtained from Charles-River, Inc. (St-Constant, Quebec, Canada) and housed 5 per cage in a temperature (23±1° C.)- and light (12 h light/day, lights on at 7:15)-controlled environment. The mice were fed rodent chow and tap water ad libitum. The animals were ovariectomized (OVX) under Isoflurane anesthesia via bilateral flank incisions and randomly assigned to groups of 10 animals. Ten mice were kept intact as controls.
In the second experiment (Table 6), TSE 424 was administered orally by gavage once daily at doses of 1, 3, 10 or 30 μg/animal for 9 days, starting 2 days after ovariectomy. In both experiments, to evaluate the antiestrogenic activity, treatment with estrone (E1, […], s.c. injection, twice daily) was started 5 days post-ovariectomy and was administered for a 6 day-period. Compounds were dissolved in ethanol (4% final concentration) and administered in 0.4% methylcellulose. Mice in the intact and OVX control groups received the vehicle alone (4% ETOH-0.4% methylcellulose) during the 9-day period. The animals were killed by exsanguination at the abdominal aorta on the 11th morning following ovariectomy. The uteri and vagina were rapidly dissected, weighed, and kept in 10% buffered formalin for further histologic examination.

[3] = Endometrial epithelium thickness in OVX nude mice after 161 days of antiestrogen (Example 8); format: in vivo; settings: for inhibition of the stimulatory effect of estrone on epithelial height: 50 μg daily oral, estrone stimulation; for height of uterine epithelial cells, % of the OVX control group value: 200 μg daily, absence of estrone
Source text: The 17 groups included two control groups (OVX and OVX+Estrone), seven groups supplemented with an estrone implant and treated with an antiestrogen and eight other groups that received an antiestrogen alone. The estrone implants were then removed from the animals in the ovariectomized control group (OVX) and in groups that were to receive the antiestrogen alone. […] Tamoxifen was purchased from […]) while toremifene citrate was purchased from Orion (Espoo, Finland). […] The antiestrogen suspensions at the appropriate concentration were prepared each month, stored at 4° C. and used under constant agitation. Powder stock were hermetically stored at 4° C. […] After 161 days of treatment, the remaining animals were anesthetized with isoflurane and killed by exsanguination. […] The uteri were prepared to evaluate endometrial thickness by image analysis performed with Image Pro-Plus (Media Cybernetics, Maryland, USA). […] Hematoxylin- and eosin-stained sections of mice uteri were analyzed. […] Mean epithelial cell height was measured in all animals of each group.

[4] = tested on: ZR-75-1 human breast cancer xenografts; assay: Growth and response of human ZR-75-1 breast tumors in OVX nude mice, 7 antiestrogens for 161 days with or without estrone (Example 8); format: in vivo; settings: for increase of average tumor size over baseline (agonistic effect) / tumors in the progression category, % / tumors in the progression category, number of total: absence of estrone, 200 μg daily; for increase of average tumor size over baseline (agonistic effect) / tumors in the progression category, % / tumors in the progression category, number of total / progressing tumors, % of tumors / progressing tumors, number of total: 161 days; for average tumor size above pretreatment values: estrone-stimulated, 50 μg oral daily, 23 weeks; for progressing tumors, % of tumors / progressing tumors, number of total: estrone-supplemented, 50 μg daily
Protocol: ZR-75-1 human breast cancer cells were obtained from the American Type Culture Collection (Rockville, Md.) and cultured in phenol red-free RPMI-1640 medium. […] (Saint-Constant, Québec, Canada). The mice (5 per cage) were housed in vinyl cages equipped with air filter lids, which were kept in laminar airflow hoods and maintained under pathogen-limiting conditions. The photoperiod was 12 hours of light and 12 hours of darkness (lights on at 07:15). Cages, bedding and food (Agway Pro-Lab R-M-H Diet #4018) were autoclaved before use. Water was autoclaved and provided ad libitum. Bilateral ovariectomy was performed under isoflurane-induced anesthesia. […] Randomization and treatments were started one week later. […] The estrone implants were then removed from the animals in the ovariectomized control group (OVX) and in groups that were to receive the antiestrogen alone. […] Tamoxifen was purchased from […]) while toremifene citrate was purchased from Orion (Espoo, Finland). […] The antiestrogen suspensions at the appropriate concentration were prepared each month, stored at 4° C. and used under constant agitation. Powder stock were hermetically stored at 4° C. […] Two perpendicular diameters were recorded and tumor area (mm2) was calculated using the formula: […] Tumor response was assessed at the end of the study or at death of each animal, if it occurred during the course of the experiment. In this case, only data of mice that survived for at least half of the study ([…]) were used in the tumor response analysis.

human Ishikawa cells = assay: Alkaline phosphatase activity in human endometrial adenocarcinoma Ishikawa cells (Example 6); settings: for IC50 / Emax: Homo sapiens, Ishikawa, 120 h; for IC50: read-out: Inhibition of 1 nM E2-induced stimulation of alkaline phosphatase IC50; for Emax: read-out: Maximal stimulation of alkaline phosphatase % of 1 nM E2 stimulation; for Maximal inhibition of 1 nM E2-induced stimulation of alkaline phosphatase: Ishikawa cells, 5-day incubation
[5] = E2 1 mg/kg, EM-652.HCl 2.5 mg/kg, DHEA 80 mg/kg
[6] = OVX + E1, antiestrogen 50 μg daily
[7] = OVX without E1, antiestrogen 200 μg daily

Row | SMILES | inhibition of the stimulatory effect of estrone on epithelial height [3] [%] | height of uterine epithelial cells, % of the OVX control group value [3] [%] | ENDOMETRIAL EPITHELIUM THICKNESS (μm) ± SEM [3, 6] | ENDOMETRIAL EPITHELIUM THICKNESS (μm) ± SEM [3, 7] | increase of average tumor size over baseline (agonistic effect) [4] | average tumor size above pretreatment values [4] [%] | progressing tumors, % of tumors [4] [%] | progressing tumors, number of total [4] | IC50 (human Ishikawa cells) [nM] | Emax (human Ishikawa cells) [%] | Maximal inhibition of 1 nM E2-induced stimulation of alkaline phosphatase (human Ishikawa cells) | further results
1 | C[C@]12CC[C@@H]3c4ccc(O)cc4CC[C@H]3[C@@H]1CC[C@@H]2O [E2, 17β-estradiol] |  |  |  |  |  |  |  |  |  |  |  | ALP (serum alkaline phosphatase activity) [1]: 59 ± 4 IU/L; CHOLESTEROL (serum) [1]: 1.37 ± 0.18 mmol/L; TOTAL FAT [1]: 19.5 ± 2.5 %; LUMBAR SPINE BMD [1, 5]: 0.2457 ± 0.0049 g/cm^2; LUMBAR SPINE Prevention of Bone Loss [1, 5]: 98%
2 | Oc1ccc2c(c1)CC[C@@H](c1ccccc1)[C@H]2c1ccc(OCCN2CCCC2)cc1 (single isomer, unassigned) [inactive enantiomer of lasofoxifene] |  |  |  |  |  |  |  |  |  |  |  | inhibition of estrone-stimulated uterine weight ([2]; any dose used (1, 3, 10 μg)): no inhibitory effect; inhibition of vaginal weight (estrone-stimulated) ([2]; any dose used (1, 3, 10 μg)): no inhibitory effect; stimulation of uterine weight (estrogenic effect) [2]: no stimulatory effect; stimulation of vaginal weight (estrogenic effect) [2]: no stimulatory effect
3 | CC/C(=C(\c1ccc(I)cc1)c1ccc(OCCN2CCCC2)cc1)c1ccccc1 [Idoxifene, (E)-1-[2-[4-[1-(4-Iodophenyl)-2-phenyl-1-butenyl]phenoxy]ethyl]pyrrolidine] | 50 | 176 | 29.35^b,d ± 0.05 μm | 32.14^b,d ± 0.05 μm | 125% | 86 | 71 | 20 of 28 |  |  |  | tumors in the progression category, % [4]: 33%; tumors in the progression category, number of total [4]: 8 of 24
4 | Cl.O=C(c1ccc(OCCN2CCCCC2)cc1)c1c(-c2ccc(O)cc2)sc2cc(O)ccc12 [Raloxifene, [2-(4-hydroxyphenyl)-6-hydroxybenzo[b]thien-3-yl] [4-[2-(1-piperidinyl)ethoxy]phenyl]-methanone hydrochloride] | 26 | 122 | 34.72^b,d ± 0.06 μm | 22.33^a ± 0.05 μm | did not significantly change | 191 | 81 | 21 of 26 | 3.39 ± 0.9 | 12.8 ± 1.7 | 94.31 ± 1.74 (5) | inhibition of estrone-stimulated uterine weight ([2]; oral 9 days, 1 μg daily): 6%; inhibition of estrone-stimulated uterine weight ([2]; oral 9 days, 3 μg daily): 14%; inhibition of estrone-stimulated uterine weight ([2]; oral 9 days, 10 μg daily): 43%; inhibition of vaginal weight (estrone-stimulated) ([2]; oral 9 days, 10 μg daily): 24%; stimulation of uterine weight (estrogenic effect) [2]: 85%; stimulation of vaginal weight (estrogenic effect) [2]: 56%
5 | CN(C)CCOc1ccc(/C(=C(/CCCl)c2ccccc2)c2ccccc2)cc1 [Toremifene, (Z)-2-[4-(4-Chloro-1,2-diphenyl-1-butenyl)phenoxy]-N,N-dimethylethanamine] | 41 | 135 | 31.47^b,d ± 0.04 μm | 24.75^b,c ± 0.04 μm | 86% | 230 | 89 | 25 of 28 |  |  |  | tumors in the progression category, % [4]: 21%; tumors in the progression category, number of total [4]: 6 of 28
6 | COc1ccc(-c2sc3cc(O)ccc3c2Oc2ccc(OCCN3CCCCC3)cc2)cc1.Cl [LY 353381, 6-hydroxy-3-[4-[2-(1-piperidinyl)ethoxy]phenoxyl]-2-(4-methoxyphenyl) benzo [b] thiophene hydrochloride] |  |  |  |  |  |  |  |  | 1.87 ± 0.07 | 15.5 ± 0.25 | 90.25 ± 0.127 (2) | 
7 | CN(C)CCOc1ccc(/C(=C(/CCCl)c2ccccc2)c2ccc(O)cc2)cc1 [OH-Toremifene, (Z)-(2)-2-[4-(4-chloro-1-(4-hydroxyphenyl)-2-phenyl-1-butenyl)phenoxy]-N,N-dimethylethanamine] |  |  |  |  |  |  |  |  | 72.1 ± 7.6 | 29.6 ± 2.1 | 75.73 ± 3.52 (3) | 
8 | CC/C(=C(/c1ccc(OCCN(C)C)cc1)c1cccc(O)c1)c1ccccc1 [Droloxifene, (E)-3-[1-[4-[2-(Dimethylamino)ethoxy]phenyl]-2-phenyl-1-butenyl] phenol] | 17 | 101 | 36.71^b,d ± 0.12 μm | 18.50 ± 0.07 μm | did not significantly change | 478 | 100 | 23 of 23 |  |  |  | 
